Measurements from ChEMBL document CHEMBL4145614, “Cyclopeptides from the Sponge Stylissa flabelliformis” (J Nat Prod, 2018).

Key:
[1] = test system: HCT-116; assay: Cytotoxicity against human HCT116 cells after 72 hrs by sulforhodamine B assay; type: functional, cell-based; conditions: hct-116
[2] = test system: K562; assay: Cytotoxicity against human K562 cells after 72 hrs by sulforhodamine B assay; type: functional, cell-based; conditions: k562
[3] = test system: MDA-MB-231; assay: Cytotoxicity against human MDA-MB-231 cells after 72 hrs by sulforhodamine B assay; type: functional, cell-based
[4] = test system: SK-HEP1; assay: Cytotoxicity against human SKHEP1 cells after 72 hrs by sulforhodamine B assay; type: functional, cell-based; conditions: sk-hep1
[5] = test system: SNU-638; assay: Cytotoxicity against human SNU638 cells after 72 hrs by sulforhodamine B assay; type: functional, cell-based; conditions: snu-638
[6] = target: Sodium/potassium-transporting ATPase; assay: Inhibition of potassium-activated sodium/potassium ATPase in human placenta using 3-O-methylfluorescein phosphate as substrate measured for 90 secs by fluorescence assay
[7] = Inhibition of recombinant bacterial sortase A using Dabcyl-QALPETGEE-Edans as substrate measured after 1 hr by fluorescence assay; design: species or system Bacteria
[8] = test system: Staphylococcus aureus; assay: Antibacterial activity against Staphylococcus aureus ATCC 6538P measured after 24 hrs; type: functional
[9] = test system: Bacillus spizizenii; assay: Antibacterial activity against Bacillus subtilis ATCC 6633 measured after 24 hrs; type: functional; conditions: ATCC 6633, 24 h
[10] = test system: Micrococcus luteus; assay: Antibacterial activity against Micrococcus luteus IFC 12708 measured after 24 hrs; type: functional; conditions: IFC 12708, 24 h
[11] = test system: Proteus vulgaris; assay: Antibacterial activity against Proteus vulgaris ATCC 3851 measured after 24 hrs; type: functional; conditions: ATCC 3851, 24 h
[12] = test system: Salmonella typhimurium; assay: Antibacterial activity against Salmonella typhimurium ATCC 14028 measured after 24 hrs; type: functional, Salmonella enterica subsp. enterica serovar Typhimurium; conditions: Salmonella enterica, ATCC 14028, 24 h
[13] = test system: Escherichia coli; assay: Antibacterial activity against Escherichia coli ATCC 25922 measured after 24 hrs; type: functional; conditions: ATCC 25922, 24 h
[14] = test system: Candida albicans; assay: Antifungal activity against Candida albicans ATCC 10231 measured after 48 to 72 hrs; type: functional
[15] = test system: Aspergillus fumigatus; assay: Antifungal activity against Aspergillus fumigatus HIC 6094 measured after 48 to 72 hrs; type: functional
[16] = test system: Trichophyton rubrum; assay: Antifungal activity against Trichophyton rubrum IFO 9185 measured after 48 to 72 hrs; type: functional
[17] = test system: Trichophyton mentagrophytes; assay: Antifungal activity against Trichophyton mentagrophytes IFO 40996 measured after 48 to 72 hrs; type: functional
[18] = test system: A549
Description: Cytotoxicity against human A549 cells after 72 hrs by sulforhodamine B assay

Row | Structure (SMILES) | IC50 [1] [µM] | IC50 [2] [µM] | IC50 ([3]; mda-mb-231) [µM] | IC50 [4] [µM] | IC50 [5] [µM] | IC50 [6] [µM] | IC50 [7] [µM] | MIC [8] [µM] | MIC [9] [µM] | MIC [10] [µM] | MIC [11] [µM] | MIC [12] [µM] | MIC [13] [µM] | MIC [14] [µM] | MIC [15] [µM] | MIC [16] [µM] | MIC [17] [µM] | IC50 [18] [µM] | IC50 ([3]; Homo sapiens, MDA-MB-231, 72 h) [µM]
1 | CC[C@H](C)[C@@H]1NC(=O)[C@H](Cc2ccc(O)cc2)NC(=O)[C@@H]2CCCN2C(=O)[C@@H]2CCCN2C(=O)[C@H](CC(C)C)NC(=O)[C@H](CCC(=O)O)NC(=O)[C@H](Cc2ccccc2)NC(=O)[C@H](CC[S+](C)[O-])NC(=O)[C@@H]2CCCN2C(=O)[C@@H]2CCCN2C1=O (single isomer, unassigned; Epimer-1) | 0.14 | 0.17 | 0.4 | 0.041 | 0.16 | > 100 | > 100 | > 128 | > 128 | > 128 | > 128 | > 128 | > 128 | > 128 | > 128 | > 128 | > 128 | 0.19 | –
2 | CC[C@H](C)[C@@H]1NC(=O)[C@H](Cc2ccc(O)cc2)NC(=O)[C@@H]2CCCN2C(=O)[C@@H]2CCCN2C(=O)[C@H](CC(C)C)NC(=O)[C@H](CCC(=O)O)NC(=O)[C@H](Cc2ccccc2)NC(=O)[C@H](CC[S+](C)[O-])NC(=O)[C@@H]2CCCN2C(=O)[C@@H]2CCCN2C1=O (single isomer, unassigned; epimer 2) | 0.011 | 0.021 | – | 0.014 | 0.01 | – | – | – | – | – | – | – | – | – | – | – | – | 0.023 | 0.35
